Reference: patent US12077495B2 (priority 2018, dated 2024)

Key:
[1] = biological target: T1, CAMK2A (Rattus norvegicus, UniProt P11275); test: biochemical; format: binding; settings: non-specific: 1 mM GHB
T1 construct: host or cells: HEK293T
Description: Cells were transfected with rat CAMK2A (Origene construct RR201121) or rat CAMK2B (Origene construct RR200520) using PolyFect (Qiagen, West Sussex, UK) according to the manufacturer's protocol. Whole cell homogenates were prepared 48 hr post-transfection by washing the cells with ice-cold 1×PBS and harvesting by scraping. Cells were collected and centrifuged for 10 min at 1000×g. Cell pellets were resuspended in ice-cold 1×PBS and homogenized using 2×1 mm zirkonium beads in a bullet blender for 20 s at max speed (NextAdvance, NY, USA). Homogenates were cleared by centrifugation (10 min, 4° C., 14.000×g). Protein concentration was determined using the Bradford protein assay. 150-200 μg protein was incubated with 5 nM ^3H-A and test compound in 1 ml total volume for 1 hr at 0-4° C. […] Proteins were then precipitated by addition of ice-cold acetone (4× of the assay volume), vortexing and incubation at −20° C. for 1 hr. Proteins were filtrated rapidly through GF/C unifilters (Whatman) and washed. The dried filters were added scintillation liquid and radioactivity measured on a Tricarb 2100 Scintillation counter (Packard).
A) Principle of photoaffinity labelling workflow. […] After introduction of biotin through a Staudinger-Bertozzi ligation to EZ-Link™ Phosphine-PEG3-Biotin (ThermoFisher Scientific), the biotin-labelled proteins were affinity-purified and subjected to LC-MS/MS analysis. […] C)^3H-A binding to cortical membranes from CAMK2A and CAMK2B knock-out mouse brains.
Human/rat CAMK2A expressed in HEK cells was assayed in an in-house established ^3H-A filtration binding assay performed on whole cell lysates of CAMK2A-transfected HEK293T cells.

[2] = biological target: T2, high-affinity forebrain binding sites (Mus musculus, UniProt P11798); test: Ex vivo 3H-A radioligand binding, autoradiography of mouse brain sections; format: in vivo, mice; settings: 5 MBq per mouse i.p.; 30 min
T2 construct: from tissue; host or cells: C57BL/6J mouse brain (hippocampus, cortex) after i.p. injection of 3H-A
Description: ^3H-A was used to perform ex vivo binding to C57BL/6J mice. Thus, in a design with 5 mice per group, ^3H-A (5 MBq per mouse) was injected i.p. After 30 min, the brains were dissected and autoradiography performed.

[3] = biological target: T3, CAMK2B (Rattus norvegicus, UniProt P08413); test: 3H-A binding to recombinant CAMK2B expressed in HEK293T cells; settings: HEK293T whole cell homogenate
T3 construct: host or cells: HEK293T
Description: HEK293T were cultured using standard conditions, using Dulbecco's modified Eagle Medium with GlutaMax, 10% fetal bovine serum and 1% penicillin-streptomycin, and incubated at 37° C. in a humidified atmosphere of […] and 5% CO2. Cells were transfected with rat CAMK2A (Origene construct RR201121) or rat CAMK2B (Origene construct RR200520) using PolyFect (Qiagen, West Sussex, UK) according to the manufacturer's protocol. Whole cell homogenates were prepared 48 hr post-transfection by washing the cells with ice-cold 1×PBS and harvesting by scraping. Cells were collected and centrifuged for 10 min at 1000×g. Cell pellets were resuspended in ice-cold 1×PBS and homogenized using 2×1 mm zirkonium beads in a bullet blender for 20 s at max speed (NextAdvance, NY, USA). Homogenates were cleared by centrifugation (10 min, 4° C., 14.000×g). Protein concentration was determined using the Bradford protein assay. 150-200 μg protein was incubated with 5 nM ^3H-A and test compound in 1 ml total volume for 1 hr at 0-4° C. […] Proteins were then precipitated by addition of ice-cold acetone (4× of the assay volume), vortexing and incubation at −20° C. for 1 hr. Proteins were filtrated rapidly through GF/C unifilters (Whatman) and washed. The dried filters were added scintillation liquid and radioactivity measured on a Tricarb 2100 Scintillation counter (Packard). […]

[4] = test system: rodents; test: Observation of acute toxicity or sedation in rodents; format: in vivo; settings: doses as high as 500 mg/kg
[5] = peripheral administration; cited from earlier work

T3 sequence (P08413 whole entry): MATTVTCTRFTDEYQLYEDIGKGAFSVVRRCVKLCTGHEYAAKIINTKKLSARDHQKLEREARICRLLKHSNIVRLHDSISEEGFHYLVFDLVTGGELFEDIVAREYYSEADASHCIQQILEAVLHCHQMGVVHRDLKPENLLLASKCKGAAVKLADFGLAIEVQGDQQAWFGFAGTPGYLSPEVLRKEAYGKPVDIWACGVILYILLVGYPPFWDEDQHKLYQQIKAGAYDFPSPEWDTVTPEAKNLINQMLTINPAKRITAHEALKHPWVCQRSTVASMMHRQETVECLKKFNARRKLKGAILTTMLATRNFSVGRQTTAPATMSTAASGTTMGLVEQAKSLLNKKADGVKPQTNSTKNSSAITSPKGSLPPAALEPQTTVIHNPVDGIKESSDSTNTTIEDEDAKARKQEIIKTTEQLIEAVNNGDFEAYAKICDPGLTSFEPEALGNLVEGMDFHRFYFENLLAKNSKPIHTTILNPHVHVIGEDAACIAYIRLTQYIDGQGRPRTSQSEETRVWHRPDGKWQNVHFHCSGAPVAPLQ
T2 sequence (P11798 whole entry): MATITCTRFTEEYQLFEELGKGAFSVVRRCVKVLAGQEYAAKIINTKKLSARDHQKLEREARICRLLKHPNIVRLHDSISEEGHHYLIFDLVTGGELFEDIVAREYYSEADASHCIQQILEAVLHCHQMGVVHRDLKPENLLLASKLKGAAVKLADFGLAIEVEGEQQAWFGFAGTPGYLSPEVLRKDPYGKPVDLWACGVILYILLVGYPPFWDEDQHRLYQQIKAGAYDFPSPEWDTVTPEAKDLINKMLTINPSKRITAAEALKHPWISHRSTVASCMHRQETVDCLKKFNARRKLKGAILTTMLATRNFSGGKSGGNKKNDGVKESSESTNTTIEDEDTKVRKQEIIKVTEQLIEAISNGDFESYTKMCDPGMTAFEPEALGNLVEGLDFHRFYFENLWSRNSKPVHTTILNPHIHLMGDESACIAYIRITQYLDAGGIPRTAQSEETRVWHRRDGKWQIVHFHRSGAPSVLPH
T1 sequence (P11275 whole entry): as the sequence (P11798 whole entry) above

Row | SMILES | specific binding to CAMK2A-transfected HEK293T whole cell homogenate [1] | ex vivo specific binding in hippocampus and cortex vs cerebellum [2] | specific binding at CAMK2B [3] | acute toxicity or sedation [4] | brain entry [5]
1 | [3H]C1(O)C=C(C(=O)O)CC1 (centres unmarked) [^3H-A] | 87% | Significant specific binding levels | no specific binding | – | –
2 | O=C([O-])C1=CC(O)CC1.[Na+] (centres unmarked) [sodium salt of A] | – | – | – | no apparent observations of acute toxicity or sedation | readily enters the brain
